Legend:
[1] = system: S. aureus; assay: Antibiotic effect in Lauria-Bertani (rich) media; format: cell-based; details: Lauria-Bertani media with 100 mM xylitol
Method: (§1) FIGS. 5(A-G). Effect of xylitol on growth of different airway pathogens. A, B and C. Growth of P. aeruginosa (A), S. aureus, (B), and coagulase-negative Staphylococcus (C) were measured as O. D. M9 media alone is indicated by open triangle. Xylitol (closed circle), or succinate, mannitol, or sucrose (open circles), were added to M9 media at 100 mM as indicated. D. Nasal swabs were collected and cultured for 3 days in Lauria-Bertani media (open circles), in minimal M9 media (open squares), or in M9 media supplemented with 100 mM xylitol (closed circles). E, F and G. P. aeruginosa (E), S. aureus (F), and coagulase-negative Staphylococcus (G) were cultured in Lauria-Bertani media alone (open triangles), Lauria-Bertani media with 100 mM xylitol (closed circles), and Lauria-Bertani media containing tobramycin or levofloxacin (open circles).
(§2) To test the effect of xylitol on growth of different airway pathogens in a carbon-starved media, P. aeruginosa, S. aureus, and coagulase-negative Staphylococcus were grown overnight in Lauria-Bertani medium. The bacteria were then centrifuged and resuspended in M9 media containing either 100 mM succinate, mannitol, or sucrose, respectively, and grown overnight at 37° C. The bacteria were centrifuged and resuspended in M9 media alone. M9 media containing 100 mM xylitol, or 100 mM of the indicated metabolizable sugar, as positive control. The optical density (O.D.) was measured after 0, 1, 2, and 4 hours at 600 nm on a Beckman DU640 Spectrophotometer (Schaumburg, Ill.). To test the antibiotic effect of xylitol, P. aeruginosa, S. aureus, and coagulase-negative Staphylococcus were grown overnight in Lauria-Bertani medium. The bacteria were then centrifuged and resuspended in Lauria-Bertani media with and without 100 mM xylitol. As a positive control, antibiotics with specific activity to each of the bacteria were added to the media (40 μg/ml tobramycin or 40 μg/ml levofloxacin).

[2] = system: coagulase-negative Staphylococcus; assay: Antibiotic effect in Lauria-Bertani (rich) media; format: cell-based; details: Lauria-Bertani media with 100 mM xylitol
Method: as §1, §2

[3] = system: P. aeruginosa; assay: Antibiotic effect in Lauria-Bertani (rich) media; format: cell-based; details: Lauria-Bertani media with 100 mM xylitol
Method: as §1, §2

[4] = system: non-CF epithelia; format: in vitro ADME, human
Method: FIGS. 1(A-C). Permeability of xylitol added to the apical surface of non-CF epithelia. Xylitol (138 mM in 60 μl) was added to the apical surface of differentiated airway epithelia at time zero. Apical liquid was removed and volume determined at times indicated. Xylitol was measured by NMR. Data are mean±SEM; n=4. Some SEM bars are hidden by symbols.
Airway epithelial cells were isolated from tracheal and bronchial tissue. Cells were seeded onto collagen-coated, semi-permeable membranes (0.6 cm^2 Millicel-HA; Millipore, Bedford, Mass.) and grown at the air-liquid interface as previously described (Smith, J. J., S. M. Travis, E. P. Greenberg, and M. J. Welsh. 1996. Cystic fibrosis airway epithelia fail to kill bacteria because of abnormal airway surface fluid. Cell. 85:229-236; and erratum 287(222); Yamaya, M., W. E. Finbeiner, S. Y. Chun, and J. H. Widdicombe. 1992. Differentiated structure and function of cultures from human tracheal epithelium. Am. J. Physiol. 262:L713-L724; Zabner, J., B. G. Zeiher, E. Friedman, and M. J. Welsh. 1996. […] All epithelia were evaluated with scanning electron microscopy for the development of a ciliated apical surface.
Proton nuclear magnetic resonance spectroscopy was used to measure the xylitol concentration in the fluid on the apical surface. […] Concentrations were then determined by comparing the measured peak integral to a standard curve for xylitol. […]

[5] = system: S. aureus; assay: Growth in carbon-starved M9 media (O.D.); format: cell-based; details: M9 media supplemented at 100 mM
Method: as §1
To test the effect of xylitol on growth of different airway pathogens in a carbon-starved media, P. aeruginosa, S. aureus, and coagulase-negative Staphylococcus were grown overnight in Lauria-Bertani medium. The bacteria were then centrifuged and resuspended in M9 media containing either 100 mM succinate, mannitol, or sucrose, respectively, and grown overnight at 37° C. […] The optical density (O.D.) was measured after 0, 1, 2, and 4 hours at 600 nm on a Beckman DU640 Spectrophotometer (Schaumburg, Ill.). […]

[6] = incorporated in chewing gum; cited from earlier work

Q: Which “inhibition of growth of S. aureus” value [1] does the source give for `OC[C@@H](O)[C@H](O)[C@@H](O)CO` [xylitol] here?
A: did not inhibit the growth

Q: And the “inhibition of growth of coagulase-negative Staphylococcus” value [2]?
A: did not inhibit the growth

Q: And the “inhibition of growth of P. aeruginosa” value [3]?
A: did not inhibit the growth

Q: And the xylitol permeability [4]?
A: not high

Q: What about the “time after which approximately half the applied xylitol would diffuse to the basolateral surface” value ([4]; human, 138 mM) of the same molecule?
A: ~11 h

Q: And the “growth of S. aureus” value [5]?
A: failed to support growth

Q: And the “effect on dental caries” value [6]?
A: prevent dental caries
